Measured values reported in US8329735B2, “Tetrazole compounds which selectively modulate the CB2 receptor” (Boehringer Ingelheim International GmbH, priority 2010, dated 2012).
Converted amounts (≈) assume the structure as drawn. Like-named read-outs stand apart in the source and are kept apart here.

Key:
human CB2R = target: T1, human CB2R (Homo sapiens, UniProt P34972); experiment: CB2R mediated modulation of cAMP synthesis; assay type: cell-based; settings: Table XI; CHO cells expressing human CB2R, forskolin-stimulated cAMP; read-out: CB2 CAMP EC50
T1 construct: host or cells: CHO cells
Protocol: Compounds of the invention are evaluated for their CB2 agonist or inverse agonistic activity in accordance with the following experimental method.
(§1) CHO cells expressing human CB2R (Euroscreen) are plated at a density of 5000 cells per well in 384 well plates and incubated overnight at 37° C. After removing the media, the cells are treated with test compounds diluted in stimulation buffer containing 1 mM IBMX, 0.25% BSA and 10 uM Forskolin. The assay is incubated for 30 minutes at 37° C. Cells are lysed and the cAMP concentration is measured using DiscoverX—XS cAMP kit, following the manufacturer's protocol. In this setting, agonists will decrease forskolin induced production of cAMP while inverse agonists will further increase forskolin induced production of cAMP. EC50 of agonists are calculated as follows. The maximal amount of cAMP produced by forskolin compared to the level of cAMP inhibited by 1 uM CP55940 is defined as 100%. The EC50 value of each test compound is determined as the concentration at which 50% of the forskolin-stimulated cAMP synthesis is inhibited. Data is analyzed using a four-parameter logistic model. (Model 205 of XLfit 4.0).

[1] = Human microsomal stability assay; assay type: in vitro ADME; settings: human liver microsomes 1 mg protein/ml, 1 uM compound, pH 7.4
Protocol: The double time point high throughput screen for human liver microsomal metabolic stability is used to measure the in vitro metabolism of test compounds by human liver microsomal enzymes. The data collected are analyzed to calculate a half-life (t½, min) and clearance (expressed as percent hepatic blood flow, % QH) for test compounds. The assay is performed in 50 mM potassium phosphate buffer, pH 7.4 and 2.5 mM NADPH. Test samples are dissolved in DMSO and acetonitrile for a final assay concentration of 1 uM. Human liver microsomes are diluted in assay buffer to a final assay concentration of 1 mg protein/ml. Compound solution and microsome suspension are added to assay buffer for a final incubation volume of 350 ul. The preparation is incubated for 5 min in a 37° C. water bath. The reaction is started by the addition of NADPH. Volumes of 80 ul are removed from the incubation mix at 0, 5, and 30 min after the start of the reaction and added to 160 ul acetonitrile. The supernatant is transferred to 0.25 mm glass fiber filter plates and centrifuged for 5 min at 3000 rpm. Injection volumes of 10 ul are typically added to HPLC columns with formic acid in water or acetonitrile at a flow rate of 0.3 ml/min. Percent loss of parent compound is calculated from the area under each time point to determine the half-life and clearance. Preferred compounds of the invention will have a human liver microsomal stability of <25% QH.

[2] = test system: Salmonella bacterial strains TA98 and TA100; experiment: Ames mutagenicity assay: bacteria reverse mutation screening assay; assay type: cell-based; settings: TA98 and TA100, presence or absence of S9
Protocol: The Ames ^(1) Salmonella bacterial strains used in the abbreviated screening assay ^(2) are TA98 and TA100. Actively growing (log phase) bacteria are incubated with test compound and trace amounts of histidine in the presence or absence of S9 for 48 hours on minimal agar plates. Test compound is dissolved in DMSO to a final concentration of 100 mg/ml. The stock is serially diluted to yield concentrations of 100, 50, 25 12.5 and 6.3 mg/ml. Fifty microliters of dosing solution is combined with top agar and buffer (or S9 mix) and poured on duplicate plates to yield effective doses of 5000, 2500, 1250, 625 and 313 μg/plate. Positive and negative controls plates are included. Formation of colonies after 48 hr incubation at 37° C. is an indication of genetic reversion, either arising spontaneously or caused by the test compound. The average number of spontaneous colonies growing on control plates is compared to the number of colonies on test plates. A fold increase of 2-3× over background is generally considered a positive response for mutagenicity. • 1. Maron, D. M. and Ames, B. N. (1983). “Revised Methods for the Salmonella Mutagenicity Test”. Mutat. Res. 113, 173-215. • 2. D. A. Burke, D. J. Wedd, and B. Burlinson (1996). “Use of the Miniscreen assay to screen novel compounds for bacterial mutagenicity in the pharmaceutical industry”. Mutagenesis 11: 201-205.

[3] = Aqueous (equilibrium) solubility assay; assay type: physicochemical; settings: aqueous buffer, thermodynamic from solid, 48 hrs equilibrium
Protocol: The equilibrium solubility of compounds is determined in pH 2, 4.5, 6.8 buffers. Prior to solubility measurement, the crystalline/amorphous characteristics of the sample are determined by observing the powder form under polarized light microscope. Solubility is only measured when compound is crystalline.
Approximately 2 mg of compound are weighed out into a vial and 1-2 ml of buffer are added into the vial (pHs 2 & 4.5, use 1 ml and for pHs 6.8 and 7.4 use 2 ml of buffer). The vial is rotated for 48 hrs protected from light. After 48 hrs, the sample is transferred into an eppendorf tube and centrifuged for 10 minutes at 14,000 RPM, if the supernatant is not clear, it is filtered (PVDF filter). The clear supernatant is diluted if necessary, before analyzing via HPLC. The final pH of the supernatant or the filtrate is measured and reported. The external calibration curve is used to determine the solubility value. The percentage of extraneous peaks relative to the parent peak is monitored in the standard solution as well as the solubility sample. Preferred compounds of the invention will have a solubility of >100 μg/ml.

human CB1R = target: T2, human CB1R (Homo sapiens, UniProt P21554); experiment: CB1R mediated modulation of cAMP synthesis; assay type: cell-based; settings: Table XI; CHO cells expressing human CB1R, forskolin-stimulated cAMP; read-out: CB1 CAMP EC50
T2 construct: host or cells: CHO cells
Protocol: Compounds of the invention are evaluated for their CB1 agonist or inverse agonistic activity in accordance with the following experimental method.
as §1, with “CB1R” for “CB2R”

T1 sequence (P34972 whole entry): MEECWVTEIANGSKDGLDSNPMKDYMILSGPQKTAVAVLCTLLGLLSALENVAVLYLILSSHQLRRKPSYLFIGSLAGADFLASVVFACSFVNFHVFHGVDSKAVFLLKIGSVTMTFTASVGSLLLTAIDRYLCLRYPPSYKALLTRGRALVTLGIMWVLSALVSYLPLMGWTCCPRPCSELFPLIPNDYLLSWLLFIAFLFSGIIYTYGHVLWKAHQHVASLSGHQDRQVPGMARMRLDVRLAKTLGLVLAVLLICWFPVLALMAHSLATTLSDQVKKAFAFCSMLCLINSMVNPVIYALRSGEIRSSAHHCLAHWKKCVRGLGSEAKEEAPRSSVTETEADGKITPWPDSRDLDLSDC
T2 sequence (P21554 whole entry): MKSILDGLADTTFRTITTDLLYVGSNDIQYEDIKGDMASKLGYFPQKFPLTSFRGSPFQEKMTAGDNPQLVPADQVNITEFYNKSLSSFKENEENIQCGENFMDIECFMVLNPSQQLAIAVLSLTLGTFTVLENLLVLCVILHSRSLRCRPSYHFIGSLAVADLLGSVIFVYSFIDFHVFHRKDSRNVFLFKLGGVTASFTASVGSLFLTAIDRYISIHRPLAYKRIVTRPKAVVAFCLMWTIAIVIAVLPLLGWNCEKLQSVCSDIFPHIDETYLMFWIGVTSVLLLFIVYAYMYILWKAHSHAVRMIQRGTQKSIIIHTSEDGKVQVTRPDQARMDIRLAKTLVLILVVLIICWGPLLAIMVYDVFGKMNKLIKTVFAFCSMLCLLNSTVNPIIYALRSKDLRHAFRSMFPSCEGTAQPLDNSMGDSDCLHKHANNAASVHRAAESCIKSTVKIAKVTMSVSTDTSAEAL

In the case of `CCC(C)S(=O)(=O)C(C)(C)C(=O)Nc1cc(C(C)(C)C)nn1C` (stereo not drawn) [Example 43 WO08039645], the EC50 (human CB2R) is reported as 0.642 µM, the “HLM clearance (percent hepatic blood flow)” value [1] is reported as 61 QH % and the Ames [2] is reported as “positive”. It also gave a solubility at 48 h ([3]; pH 4.5 buffer, read-out: solubility at pH 4.5) of 1260 µg/mL (≈ 3.68 mM), a solubility at 48 h ([3]; pH 6.8 buffer, read-out: solubility at pH 6.8) of 1160 µg/mL (≈ 3.37 mM) and an EC50 (human CB1R) greater than 20 µM.
